{
  "source": "paper PMC3148848",
  "about": "(Journal of medicinal chemistry, 2009)",
  "molecular_target": "SARS-CoV PLpro (Severe acute respiratory syndrome coronavirus, UniProt P0C6X7)",
  "type": "biochemical",
  "data": [
    {"smiles": "Cc1ccccc1C(=O)N[C@H](C)c1ccc2ccccc2c1", "note": "[lead]", "values": [
      {"measurement": "mode of inhibition (kinetic studies)", "result": "reversible inhibitor"}
    ]}
  ]
}
